Measurements reported in patent publication US20250145585A1, “HETEROCYCLIC INHIBITORS OF IGF-1R FOR TREATMENT OF DISEASE” (HORIZON THERAPEUTICS IRELAND DAC, priority 2023, published 2025).

target: T1, IGF-1R (Homo sapiens, UniProt P08069); assay: Example B-1: IGF-1R Assay (PC3 cells stimulated with IGF1, AlphaLISA on cell lysates); assay type: cell-based; details: compound two hours, IGF1 200 ng/mL for 30 min, read-out: IC50, Biological Activity against IGF-1R (Table B1)
T1 construct: expressed in transfected cells
T1 sequence (P08069 31-1367): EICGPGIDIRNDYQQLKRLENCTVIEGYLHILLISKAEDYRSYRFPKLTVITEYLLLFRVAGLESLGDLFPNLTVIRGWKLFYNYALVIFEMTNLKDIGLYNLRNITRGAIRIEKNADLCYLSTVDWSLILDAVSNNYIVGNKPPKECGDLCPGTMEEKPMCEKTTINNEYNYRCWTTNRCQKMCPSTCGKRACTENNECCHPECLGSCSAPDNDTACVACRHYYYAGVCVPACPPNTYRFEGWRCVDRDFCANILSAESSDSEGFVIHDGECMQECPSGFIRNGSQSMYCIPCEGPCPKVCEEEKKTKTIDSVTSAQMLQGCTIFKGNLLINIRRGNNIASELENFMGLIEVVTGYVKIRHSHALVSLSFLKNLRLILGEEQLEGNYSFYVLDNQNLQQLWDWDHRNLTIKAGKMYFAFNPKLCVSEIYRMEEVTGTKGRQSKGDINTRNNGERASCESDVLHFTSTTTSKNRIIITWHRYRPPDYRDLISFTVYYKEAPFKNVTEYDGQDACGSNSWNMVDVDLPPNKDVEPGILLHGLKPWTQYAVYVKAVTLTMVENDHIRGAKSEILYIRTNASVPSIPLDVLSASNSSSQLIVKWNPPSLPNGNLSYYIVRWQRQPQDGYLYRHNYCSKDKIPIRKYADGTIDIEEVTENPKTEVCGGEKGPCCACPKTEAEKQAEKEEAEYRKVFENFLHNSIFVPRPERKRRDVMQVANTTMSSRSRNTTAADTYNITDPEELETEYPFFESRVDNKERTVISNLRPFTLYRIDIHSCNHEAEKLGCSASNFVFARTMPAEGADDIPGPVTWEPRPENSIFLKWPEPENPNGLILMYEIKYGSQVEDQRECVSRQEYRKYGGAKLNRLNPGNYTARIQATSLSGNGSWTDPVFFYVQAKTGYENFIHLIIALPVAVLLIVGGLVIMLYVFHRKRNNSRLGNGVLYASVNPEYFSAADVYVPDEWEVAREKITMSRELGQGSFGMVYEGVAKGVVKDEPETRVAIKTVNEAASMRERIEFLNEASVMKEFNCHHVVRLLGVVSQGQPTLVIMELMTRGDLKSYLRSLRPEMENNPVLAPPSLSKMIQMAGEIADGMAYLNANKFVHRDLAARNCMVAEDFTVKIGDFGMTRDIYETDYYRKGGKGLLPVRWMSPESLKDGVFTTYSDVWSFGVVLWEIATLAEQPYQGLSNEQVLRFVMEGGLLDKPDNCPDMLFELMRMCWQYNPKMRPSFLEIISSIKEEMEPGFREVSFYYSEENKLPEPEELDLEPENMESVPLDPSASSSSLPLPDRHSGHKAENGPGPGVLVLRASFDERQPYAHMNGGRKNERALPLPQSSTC
Method: 50K PC3 cells were seeded on day 1 in 50 μL of media in 96-well plate and incubated overnight at 37° C., 5% CO2. On day 2, all cells were expected to be at 80-90% confluency. Cells were starved for two hours by changing the media to 90 μL of EMEM serum-free media and incubated for 2 hours. Next, cells were treated with 10 μL of 10× concentrated and 3× serially diluted compounds for two hours. It makes 1× of compounds in 100 μL media. This was followed by stimulation of cells with 11×IGF1 for 30 min in 10 μL of serum-free EMEM media at the final concentration of 200 ng/mL.
The media was removed and replaced by 50 μL of 1× lysis buffer from the AlphaLISA kit (with 1× of cOmplete™ protease inhibitor). The plates were sealed, and cells were allowed to lyse for 10 min in the shaker before storing the plate at −20° C. until used. The AlphaLISA assay with processed cell lysates were performed as described in the protocol. Briefly, 10 μL of the undiluted sample were loaded to 384 well Optiplates and 5 μL of the acceptor mix (as described in the AlphaLISA kit) was added to each well. The plates were sealed and briefly vortexed followed by the incubation at RT for 3 hours. In the dark, 5 μL of donor mix was added to each well. All plates were sealed and stored at RT overnight. The plates were read in EnVision reader using standard AlphaLISA settings.
Compound activity was analyzed using CBIS data analysis suite (Cheminnovation, CA). Percentage inhibition was calculated using the following formula: % I-hibition=100%×(1−(mea−RLU of test sample−mean RLU of vehicle control)/(mean-RLU of EC80 control−mean RLU of vehicle control)). The activity for representative examples of the invention is shown in the following table, wherein A: IC50≤500 nM; B: 500 nM<IC50≤2 μM; C: 2 μM<IC50≤10 μM; D: IC50>10 μM.

Structure (SMILES) | IC50 [nM]
CC1(C)C(=O)N(c2ccc(SC(F)(F)F)cc2)C(=O)N1Cc1ccnc(Nc2ncc[nH]2)c1 [Compound 352, 1-((2-((1H-imidazol-2-yl)amino)pyridin-4-yl)methyl)-5,5-dimethyl-3-(4-((trifluoromethyl)thio)phenyl) imidazolidine-2,4-dione] | ≤ 500
COC[C@H](C)Nc1cc(CN2C(=O)N(c3ccc(C(C)(C)C)cc3)C(=O)C2(C)C)ccn1 [Compound 269, (S)-3-(4-(tert-butyl)phenyl)-1-((2-((1-methoxypropan-2-yl)amino)pyridin-4-yl)methyl)-5,5-dimethylimidazolidine-2,4-dione] | ≤ 500
CC(C)Nc1nccc(CN2C(=O)N(c3ccc(SC(F)(F)F)cc3)C(=O)C2(C)C)c1F [Compound 382, 1-((3-fluoro-2-(isopropylamino)pyridin-4-yl)methyl)-5,5-dimethyl-3-(4-((trifluoromethyl)thio)phenyl) imidazolidine-2,4-dione] | 2000 to 10000
CC(C)(C)c1ccc(N2C(=O)N(Cc3ccnc4[nH]ccc34)C(C)(C)C2=O)cc1 [Compound 4] | ≤ 500
CC1(C)CNc2ncc(CN3C(=O)N(c4ccc(SC(F)(F)F)cc4)C(=O)C3(C)C)cc21 [Compound 405, 1-((3,3-dimethyl-2,3-dihydro-1H-pyrrolo[2,3-b]pyridin-5-yl)methyl)-5,5-dimethyl-3-(4-((trifluoromethyl)thio)phenyl) imidazolidine-2,4-dione] | 2000 to 10000
CC1(C)C(=O)N(c2ccc(SC(F)(F)F)cc2)C(=O)N1Cc1ccnc(NC(=O)C2CC3(CNC3)C2)c1 [Compound 302, N-(4-((5,5-dimethyl-2,4-dioxo-3-(4-((trifluoromethyl)thio)phenyl)imidazolidin-1-yl)methyl)pyridin-2-yl)-2-azaspiro[3.3]heptane-6-carboxamide] | ≤ 500

Second part, the compound after the results:

IC50 [nM] | Structure (SMILES)
≤ 500 | CC1(C)C(=O)N(c2ccc(SC(F)(F)F)cc2)C(=O)N1Cc1ccnc(NC(=O)Nc2ccc(F)cc2)c1 [Compound 368, 1-(4-((5,5-dimethyl-2,4-dioxo-3-(4-((trifluoromethyl)thio)phenyl)imidazolidin-1-yl)methyl)pyridin-2-yl)-3-(4-fluorophenyl)urea]
500 to 2000 | CC1(C)C(=O)N(c2ccc(SC(F)(F)F)cc2)C(=O)N1Cc1cccc(Nc2c(Nc3ccccc3)c(=O)c2=O)n1 [Compound 367, 1-((6-((3,4-dioxo-2-(phenylamino)cyclobut-1-en-1-yl)amino)pyridin-2-yl)methyl)-5,5-dimethyl-3-(4-((trifluoromethyl)thio)phenyl) imidazolidine-2,4-dione]
500 to 2000 | CC1(C)C(=O)N(c2ccc(SC(F)(F)F)cc2)C(=O)N1Cc1ccnc(NC(=O)Nc2ccc(Cl)cc2)c1 [Compound 377, 1-(4-chlorophenyl)-3-(4-((5,5-dimethyl-2,4-dioxo-3-(4-((trifluoromethyl)thio)phenyl)imidazolidin-1-yl)methyl)pyridin-2-yl)urea]
≤ 500 | Cn1cc(CNc2cc(CN3C(=O)N(c4ccc(SC(F)(F)F)cc4)C(=O)C3(C)C)ccn2)cn1 [Compound 301, 5,5-dimethyl-1-((2-(((1-methyl-1H-pyrazol-4-yl)methyl)amino)pyridin-4-yl)methyl)-3-(4-((trifluoromethyl)thio)phenyl)imidazolidine-2,4-dione]
≤ 500 | CN(C)C(=O)c1cncc(Nc2cc(CN3C(=O)N(c4ccc(SC(F)(F)F)cc4)C(=O)C3(C)C)ccn2)c1 [Compound 359, 5-((4-((5,5-dimethyl-2,4-dioxo-3-(4-((trifluoromethyl)thio)phenyl)imidazolidin-1-yl)methyl)pyridin-2-yl)amino)-N,N-dimethylnicotinamide]
≤ 500 | CC1(C)C(=O)N(c2ccc(SC(F)(F)F)cc2)C(=O)N1Cc1ncnc2[nH]ccc12 [Compound 3, 1-((7H-pyrrolo[2,3-d]pyrimidin-4-yl)methyl)-5,5-dimethyl-3-(4-((trifluoromethyl)thio)phenyl)imidazolidine-2,4-dione]
